Data as given in ChEMBL document CHEMBL4507258 (2021).

Columns and labels:
[1] = target: Serine/threonine-protein kinase Nek4 (Homo sapiens) (UniProt P51957); settings: Compound concentration 1000.0 nM
[2] = target: Interleukin-1 receptor-associated kinase 3 (Homo sapiens) (UniProt Q9Y616); settings: Compound concentration 1000.0 nM
[3] = target: Homeodomain-interacting protein kinase 4 (Homo sapiens) (UniProt Q8NE63); settings: Compound concentration 1000.0 nM
[4] = target: Tyrosine-protein kinase SYK (Homo sapiens) (UniProt P43405); settings: Compound concentration 1000.0 nM
[5] = target: Bone morphogenetic protein receptor type-1B (Homo sapiens) (UniProt O00238); settings: Compound concentration 1000.0 nM
[6] = target: Receptor-type tyrosine-protein kinase FLT3 (Homo sapiens) (UniProt P36888); settings: Compound concentration 1000.0 nM
[7] = tested on: Tyrosine-protein kinase ABL1 (Homo sapiens), P00519 [F317I]; settings: Compound concentration 1000.0 nM
[8] = target: Serine/threonine-protein kinase 17B (Homo sapiens) (UniProt O94768); settings: Compound concentration 1000.0 nM
[9] = tested on: Receptor-type tyrosine-protein kinase FLT3 (Homo sapiens), P36888 [K663Q]; settings: Compound concentration 1000.0 nM
[10] = target: GABA-A receptor; anion channel (Rattus norvegicus) (UniProt O09028+P15431+P18506+P18508+P19969+P20236+P23574+P23576+P28471+P28473+P30191+P62813+P63079+P63138+Q91ZM7+Q9ES14); settings: Compound concentration 10.0 uM
[11] = target: Mitogen-activated protein kinase kinase kinase kinase 5 (Homo sapiens) (UniProt Q9Y4K4); settings: Compound concentration 1000.0 nM
[12] = target: Ephrin type-B receptor 3 (Homo sapiens) (UniProt P54753); settings: Compound concentration 1000.0 nM
[13] = target: Phosphorylase b kinase gamma catalytic chain, skeletal muscle/heart isoform (Homo sapiens) (UniProt Q16816); settings: Compound concentration 1000.0 nM
[14] = target: Calcium/calmodulin-dependent protein kinase type 1G (Homo sapiens) (UniProt Q96NX5); settings: Compound concentration 1000.0 nM
[15] = target: Receptor-interacting serine/threonine-protein kinase 4 (Homo sapiens) (UniProt P57078); settings: Compound concentration 1000.0 nM
[16] = target: Protein kinase C eta type (Homo sapiens) (UniProt P24723); settings: Compound concentration 1000.0 nM
[17] = target: Dual specificity tyrosine-phosphorylation-regulated kinase 1B (Homo sapiens) (UniProt Q9Y463); settings: Compound concentration 1000.0 nM
[18] = target: Calcium/calmodulin-dependent protein kinase kinase 2 (Homo sapiens) (UniProt Q96RR4); settings: Compound concentration 1000.0 nM
[19] = tested on: Tyrosine-protein kinase ABL1 (Homo sapiens), P00519 [Y253F]; settings: Compound concentration 1000.0 nM
[20] = target: Wee1-like protein kinase 2 (Homo sapiens) (UniProt P0C1S8); settings: Compound concentration 1000.0 nM
[21] = target: Calcium/calmodulin-dependent protein kinase type II subunit gamma (Homo sapiens) (UniProt Q13555); settings: Compound concentration 1000.0 nM
[22] = target: Activin receptor type-1 (Homo sapiens) (UniProt Q04771); settings: Compound concentration 1000.0 nM
[23] = target: Microtubule-associated serine/threonine-protein kinase 1 (Homo sapiens) (UniProt Q9Y2H9); settings: Compound concentration 1000.0 nM
[24] = target: Mitogen-activated protein kinase kinase kinase 3 (Homo sapiens) (UniProt Q99759); settings: Compound concentration 1000.0 nM
[25] = target: Mitogen-activated protein kinase kinase kinase 6 (Homo sapiens) (UniProt O95382); settings: Compound concentration 1000.0 nM
[26] = tested on: Receptor-type tyrosine-protein kinase FLT3 (Homo sapiens), P36888 [D835Y]; settings: Compound concentration 1000.0 nM
[27] = target: Cyclin-dependent kinase-like 3 (Homo sapiens) (UniProt Q8IVW4); settings: Compound concentration 1000.0 nM
[28] = target: MAP kinase-activated protein kinase 5 (Homo sapiens) (UniProt Q8IW41); settings: Compound concentration 1000.0 nM
[29] = target: Tyrosine-protein kinase BTK (Homo sapiens) (UniProt Q06187); settings: Compound concentration 1000.0 nM
[30] = target: Serine/threonine-protein kinase SBK1 (Homo sapiens) (UniProt Q52WX2); settings: Compound concentration 1000.0 nM
[31] = target: Ephrin type-A receptor 3 (Homo sapiens) (UniProt P29320); settings: Compound concentration 1000.0 nM
[32] = target: Hepatocyte growth factor receptor (Homo sapiens) (UniProt P08581); settings: Compound concentration 1000.0 nM
[33] = target: Atypical kinase COQ8A, mitochondrial (Homo sapiens) (UniProt Q8NI60); settings: Compound concentration 1000.0 nM
[34] = target: MAP/microtubule affinity-regulating kinase 4 (Homo sapiens) (UniProt Q96L34); settings: Compound concentration 1000.0 nM
[35] = target: Myotonin-protein kinase (Homo sapiens) (UniProt Q09013); settings: Compound concentration 1000.0 nM
[36] = target: Tyrosine-protein kinase FRK (Homo sapiens) (UniProt P42685); settings: Compound concentration 1000.0 nM
[37] = target: Sodium-dependent serotonin transporter (Homo sapiens) (UniProt P31645); settings: Compound concentration 10.0 uM
[38] = target: Phosphatidylinositol 4-phosphate 5-kinase type-1 gamma (Homo sapiens) (UniProt O60331); settings: Compound concentration 1000.0 nM
[39] = target: Casein kinase I isoform alpha (Homo sapiens) (UniProt P48729); settings: Compound concentration 1000.0 nM
[40] = target: Fibroblast growth factor receptor 1 (Homo sapiens) (UniProt P11362); settings: Compound concentration 1000.0 nM
[41] = target: Insulin receptor (Homo sapiens) (UniProt P06213); settings: Compound concentration 1000.0 nM
[42] = target: cAMP-dependent protein kinase catalytic subunit PRKX (Homo sapiens) (UniProt P51817); settings: Compound concentration 1000.0 nM
[43] = target: Mitogen-activated protein kinase 8 (Homo sapiens) (UniProt P45983); settings: Compound concentration 1000.0 nM
[44] = target: Phosphatidylinositol 5-phosphate 4-kinase type-2 beta (Homo sapiens) (UniProt P78356); settings: Compound concentration 1000.0 nM

Serine/threonine-protein kinase 17B (Homo sapiens), sequence (O94768 whole entry): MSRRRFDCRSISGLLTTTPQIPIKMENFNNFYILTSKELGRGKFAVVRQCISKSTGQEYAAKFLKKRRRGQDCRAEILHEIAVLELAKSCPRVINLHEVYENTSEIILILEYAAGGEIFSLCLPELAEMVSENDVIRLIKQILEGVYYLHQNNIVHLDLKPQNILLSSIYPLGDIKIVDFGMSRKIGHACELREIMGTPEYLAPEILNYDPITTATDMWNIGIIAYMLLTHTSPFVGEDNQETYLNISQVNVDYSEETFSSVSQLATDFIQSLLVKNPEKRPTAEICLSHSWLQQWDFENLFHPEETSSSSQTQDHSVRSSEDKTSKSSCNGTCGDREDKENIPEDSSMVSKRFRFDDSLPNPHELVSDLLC
MAP/microtubule affinity-regulating kinase 4 (Homo sapiens), sequence (Q96L34 whole entry): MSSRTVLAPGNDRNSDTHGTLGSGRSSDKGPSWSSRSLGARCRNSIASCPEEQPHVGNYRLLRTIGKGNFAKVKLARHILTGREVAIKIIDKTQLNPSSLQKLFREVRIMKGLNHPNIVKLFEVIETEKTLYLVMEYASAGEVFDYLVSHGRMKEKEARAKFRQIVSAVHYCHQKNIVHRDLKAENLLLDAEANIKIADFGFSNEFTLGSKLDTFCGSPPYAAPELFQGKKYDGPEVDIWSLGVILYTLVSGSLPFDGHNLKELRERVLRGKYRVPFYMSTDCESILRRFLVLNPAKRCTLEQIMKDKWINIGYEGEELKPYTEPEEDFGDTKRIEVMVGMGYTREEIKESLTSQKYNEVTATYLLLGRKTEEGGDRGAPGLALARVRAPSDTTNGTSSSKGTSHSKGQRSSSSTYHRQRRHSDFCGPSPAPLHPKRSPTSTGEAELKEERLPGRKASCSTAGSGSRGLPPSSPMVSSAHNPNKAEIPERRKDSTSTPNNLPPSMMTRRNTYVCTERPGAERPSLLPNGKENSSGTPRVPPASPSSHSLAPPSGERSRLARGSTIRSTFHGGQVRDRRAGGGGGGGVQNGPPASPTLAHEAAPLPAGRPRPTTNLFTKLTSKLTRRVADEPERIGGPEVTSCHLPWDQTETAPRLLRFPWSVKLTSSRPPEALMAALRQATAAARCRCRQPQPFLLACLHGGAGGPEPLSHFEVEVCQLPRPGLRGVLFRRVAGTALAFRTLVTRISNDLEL
Mitogen-activated protein kinase kinase kinase 3 (Homo sapiens), sequence (Q99759 whole entry): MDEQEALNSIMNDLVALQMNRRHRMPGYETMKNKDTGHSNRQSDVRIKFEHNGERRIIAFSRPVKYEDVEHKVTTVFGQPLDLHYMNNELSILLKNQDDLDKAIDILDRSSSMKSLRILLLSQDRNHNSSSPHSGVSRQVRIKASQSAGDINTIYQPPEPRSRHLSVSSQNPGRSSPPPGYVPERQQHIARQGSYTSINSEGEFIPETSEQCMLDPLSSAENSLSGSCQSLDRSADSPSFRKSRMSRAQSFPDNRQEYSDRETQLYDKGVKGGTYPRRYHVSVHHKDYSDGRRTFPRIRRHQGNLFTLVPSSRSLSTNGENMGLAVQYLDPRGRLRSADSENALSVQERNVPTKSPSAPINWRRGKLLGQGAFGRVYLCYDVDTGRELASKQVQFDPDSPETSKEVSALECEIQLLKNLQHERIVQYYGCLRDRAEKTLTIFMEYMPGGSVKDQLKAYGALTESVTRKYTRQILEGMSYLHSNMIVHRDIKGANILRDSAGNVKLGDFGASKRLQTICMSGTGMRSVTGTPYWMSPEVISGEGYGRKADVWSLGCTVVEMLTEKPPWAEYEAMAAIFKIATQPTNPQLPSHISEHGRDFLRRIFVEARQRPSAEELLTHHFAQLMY
Myotonin-protein kinase (Homo sapiens), sequence (Q09013 whole entry): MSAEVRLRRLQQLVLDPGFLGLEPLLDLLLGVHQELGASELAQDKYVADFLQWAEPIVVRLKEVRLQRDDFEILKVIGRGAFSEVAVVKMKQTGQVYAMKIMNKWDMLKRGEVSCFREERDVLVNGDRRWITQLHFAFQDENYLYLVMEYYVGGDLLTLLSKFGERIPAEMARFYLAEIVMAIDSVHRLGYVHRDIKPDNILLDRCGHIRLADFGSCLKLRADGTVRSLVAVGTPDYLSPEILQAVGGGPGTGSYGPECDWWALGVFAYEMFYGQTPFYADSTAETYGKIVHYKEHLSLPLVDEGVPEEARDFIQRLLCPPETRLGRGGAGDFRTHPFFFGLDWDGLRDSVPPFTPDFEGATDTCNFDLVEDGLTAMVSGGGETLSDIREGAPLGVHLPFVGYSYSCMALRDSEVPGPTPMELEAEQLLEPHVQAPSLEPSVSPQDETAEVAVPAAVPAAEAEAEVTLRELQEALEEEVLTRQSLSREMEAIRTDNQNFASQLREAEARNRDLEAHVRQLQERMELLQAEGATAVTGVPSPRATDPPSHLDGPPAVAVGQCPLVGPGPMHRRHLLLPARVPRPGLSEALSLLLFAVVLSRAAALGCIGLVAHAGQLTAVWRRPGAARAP
Ephrin type-A receptor 3 (Homo sapiens), sequence (P29320 whole entry): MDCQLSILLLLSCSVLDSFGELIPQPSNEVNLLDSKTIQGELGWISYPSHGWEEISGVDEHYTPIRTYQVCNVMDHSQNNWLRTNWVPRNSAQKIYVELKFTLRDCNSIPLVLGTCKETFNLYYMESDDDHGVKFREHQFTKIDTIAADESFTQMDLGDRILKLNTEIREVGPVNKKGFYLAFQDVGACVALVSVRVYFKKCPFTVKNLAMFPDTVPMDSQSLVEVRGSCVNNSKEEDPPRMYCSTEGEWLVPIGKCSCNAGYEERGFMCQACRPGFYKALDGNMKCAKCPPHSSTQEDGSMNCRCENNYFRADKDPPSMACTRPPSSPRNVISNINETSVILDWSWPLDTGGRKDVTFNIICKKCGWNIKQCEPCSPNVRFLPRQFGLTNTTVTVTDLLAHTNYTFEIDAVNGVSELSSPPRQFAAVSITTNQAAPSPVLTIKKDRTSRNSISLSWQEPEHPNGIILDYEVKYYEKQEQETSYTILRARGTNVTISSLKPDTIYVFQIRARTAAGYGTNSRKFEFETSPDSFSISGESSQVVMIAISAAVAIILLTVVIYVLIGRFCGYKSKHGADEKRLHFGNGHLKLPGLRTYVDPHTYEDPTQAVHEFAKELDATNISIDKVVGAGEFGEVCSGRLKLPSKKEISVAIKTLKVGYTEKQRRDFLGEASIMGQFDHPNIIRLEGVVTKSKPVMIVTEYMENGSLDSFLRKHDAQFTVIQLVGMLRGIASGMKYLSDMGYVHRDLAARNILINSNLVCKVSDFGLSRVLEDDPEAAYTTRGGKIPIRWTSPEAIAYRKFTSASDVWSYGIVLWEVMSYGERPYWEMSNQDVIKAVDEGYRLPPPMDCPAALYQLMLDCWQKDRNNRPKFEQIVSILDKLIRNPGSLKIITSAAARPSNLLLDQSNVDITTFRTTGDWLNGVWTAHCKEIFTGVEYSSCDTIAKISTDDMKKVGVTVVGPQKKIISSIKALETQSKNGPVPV
Mitogen-activated protein kinase 8 (Homo sapiens), sequence (P45983 whole entry): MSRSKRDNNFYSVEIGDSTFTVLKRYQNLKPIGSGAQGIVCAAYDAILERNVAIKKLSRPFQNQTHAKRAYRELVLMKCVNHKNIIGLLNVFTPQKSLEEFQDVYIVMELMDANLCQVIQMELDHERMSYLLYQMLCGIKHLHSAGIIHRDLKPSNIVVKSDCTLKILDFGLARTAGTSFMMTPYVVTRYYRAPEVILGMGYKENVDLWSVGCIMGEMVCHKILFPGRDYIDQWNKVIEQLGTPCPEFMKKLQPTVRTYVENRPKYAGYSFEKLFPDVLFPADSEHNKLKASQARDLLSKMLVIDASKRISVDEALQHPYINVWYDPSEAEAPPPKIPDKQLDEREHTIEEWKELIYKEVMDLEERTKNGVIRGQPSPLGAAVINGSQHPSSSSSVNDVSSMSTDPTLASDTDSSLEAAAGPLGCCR
Bone morphogenetic protein receptor type-1B (Homo sapiens), sequence (O00238 whole entry): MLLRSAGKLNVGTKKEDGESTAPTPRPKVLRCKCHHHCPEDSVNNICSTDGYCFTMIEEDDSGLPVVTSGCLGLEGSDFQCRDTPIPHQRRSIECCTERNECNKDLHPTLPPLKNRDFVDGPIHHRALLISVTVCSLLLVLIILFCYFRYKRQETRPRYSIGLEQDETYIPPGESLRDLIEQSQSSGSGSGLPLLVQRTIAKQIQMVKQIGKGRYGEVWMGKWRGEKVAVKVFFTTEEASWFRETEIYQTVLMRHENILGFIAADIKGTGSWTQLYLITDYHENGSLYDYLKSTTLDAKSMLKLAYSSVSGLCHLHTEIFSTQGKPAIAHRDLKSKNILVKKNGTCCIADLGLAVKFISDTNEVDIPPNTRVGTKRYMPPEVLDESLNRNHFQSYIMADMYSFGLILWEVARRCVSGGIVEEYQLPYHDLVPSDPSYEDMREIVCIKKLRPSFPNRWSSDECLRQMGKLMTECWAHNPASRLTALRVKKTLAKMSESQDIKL
Serine/threonine-protein kinase SBK1 (Homo sapiens), sequence (Q52WX2 whole entry): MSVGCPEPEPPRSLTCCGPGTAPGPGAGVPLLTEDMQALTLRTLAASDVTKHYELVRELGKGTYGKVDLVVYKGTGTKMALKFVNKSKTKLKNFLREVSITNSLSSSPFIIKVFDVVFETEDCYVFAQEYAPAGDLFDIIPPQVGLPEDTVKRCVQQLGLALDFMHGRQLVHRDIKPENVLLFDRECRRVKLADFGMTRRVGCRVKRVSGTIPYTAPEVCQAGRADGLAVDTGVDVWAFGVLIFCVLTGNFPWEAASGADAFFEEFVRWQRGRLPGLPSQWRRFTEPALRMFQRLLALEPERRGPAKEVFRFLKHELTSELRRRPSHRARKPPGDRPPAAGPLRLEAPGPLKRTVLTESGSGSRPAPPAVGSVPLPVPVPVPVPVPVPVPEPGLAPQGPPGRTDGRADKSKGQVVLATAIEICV

CCCCN(CCCC)C(=O)CN1C[C@@H](c2cc(OC)c3c(c2)OCO3)[C@H](C(=O)O)[C@H]1CC(C)(C)CCC [A-545]
residual activity [1]: 93.9%
residual activity [2]: 85%
residual activity [3]: 100%
residual activity [4]: 100%
residual activity [5]: 100%
residual activity [6]: 97.4%
residual activity [7]: 94.3%
residual activity [8]: 100%
residual activity [9]: 80.1%
inhibition [10]: 8.52%
residual activity [11]: 100%
residual activity [12]: 100%
residual activity [13]: 97.5%
residual activity [14]: 100%
residual activity [15]: 77.2%
residual activity [16]: 0%
residual activity [17]: 95%
residual activity [18]: 87.2%
residual activity [19]: 100%
residual activity [20]: 89.1%
residual activity [21]: 94.3%
residual activity [22]: 100%
residual activity [23]: 100%
residual activity [24]: 100%
residual activity [25]: 100%
residual activity [26]: 75.2%
residual activity [27]: 83.6%
residual activity [28]: 100%
residual activity [29]: 100%
residual activity [30]: 90.6%
residual activity [31]: 95.3%
residual activity [32]: 100%
residual activity [33]: 99.4%
residual activity [34]: 93%
residual activity [35]: 100%
residual activity [36]: 100%
inhibition [37]: -7.99%
residual activity [38]: 100%
residual activity [39]: 99.1%
residual activity [40]: 100%
residual activity [41]: 89%
residual activity [42]: 87.7%
residual activity [43]: 92.1%
residual activity [44]: 59.8%

CCCCN(CCCC)C(=O)CN1C[C@H](c2cc(OC)c3c(c2)OCO3)[C@@H](C(=O)O)[C@@H]1CC(C)(C)CCC [ABT-546]
residual activity [1]: 85%
residual activity [2]: 100%
residual activity [3]: 100%
residual activity [4]: 100%
residual activity [5]: 59%
residual activity [6]: 76%
residual activity [7]: 72.5%
residual activity [8]: 100%
residual activity [9]: 100%
inhibition [10]: 19.7%
residual activity [11]: 100%
residual activity [12]: 100%
residual activity [13]: 100%
residual activity [14]: 100%
residual activity [15]: 85.5%
residual activity [16]: 100%
residual activity [17]: 100%
residual activity [18]: 100%
residual activity [19]: 86.7%
residual activity [20]: 100%
residual activity [21]: 100%
residual activity [22]: 100%
residual activity [23]: 100%
residual activity [24]: 94.3%
residual activity [25]: 81.7%
residual activity [26]: 100%
residual activity [27]: 100%
residual activity [28]: 67.9%
residual activity [29]: 61.3%
residual activity [30]: 76.5%
residual activity [31]: 100%
residual activity [32]: 100%
residual activity [33]: 100%
residual activity [34]: 98.3%
residual activity [35]: 100%
residual activity [36]: 100%
inhibition [37]: 15.3%
residual activity [38]: 65.9%
residual activity [39]: 98.1%
residual activity [40]: 89.4%
residual activity [41]: 75.8%
residual activity [42]: 100%
residual activity [43]: 100%
residual activity [44]: 100%
